In patent EP0588799B1, “NEW SULPHONAMIDES, PROCESS FOR PREPARING THE SAME AND MEDICAMENTS CONTAINING THESE COMPOUNDS” (BOEHRINGER MANNHEIM GMBH, priority 1991, dated 1992):

Key:
Plasma-LDL = assay: Stabilisation of plasma LDL: prolongation of the lag phase of Cu(II)-induced oxidation (diene formation at A 234); assay type: biochemical, human; settings: for Stabilisierung v. Plasma LDL: Verlängerung der "lag-Phase": 3 molecules test substance per LDL particle, LDL 125 µg protein/ml, 10 µM CuCl2, pH 8, 42° C
Description: Stabilisierung von Plasma-LDL (nach Huber et al. (1990) Free Rad. Res. Comms. 8, 167-173)
LDL (125 µg Protein/ml) wurde in 20 mM Tris-Cl pH 8, 150 mM NaCl, 10 µM CuCl2 mit und ohne Testverbindung (gelöst in Äthanol, Äthanolendkonzentration 0,5 %) bei 42° C oxidiert. Es wurden jeweils 3 Moleküle Testsubstanz pro LDL-Partikel eingesetzt. Die Oxidation wurde kontinuierlich photometrisch bei A 234 durch die Messung der Dienbildung verfolgt. Die sogenannte "lag Phase" ist als dasjenige Zeitintervall definiert, das sich aus dem Schnittpunkt der Tangente der Kurve während der Propagationsreaktion der Lipidperoxidation und der Zeitachse ergibt.

P 388 D.1 Makrophagen = assay: Inhibition of cholesterol ester formation in macrophages (after Huber et al.); assay type: cell-based; settings: P 388 D.1 macrophages; for Hemmung der Cholesterinesterbildung in Macro- (P388D.1): 18 h incubation, F-10 medium + 1 µM Cu(II) + 50 µg/ml LDL + 5 % FCS, test concentration not given
Description: Hemmung der Cholesterinesterbildung in Makrophagen (nach Huber et al. (1990) Free Rad. Res. Comms. 8, 167-173)
Humanplasma-LDL wurde durch sequentielle Ultrazentrifugation bei präselekierten Dichten aus dem Plasma gesunder männlicher Nichtraucher isoliert und für 5 h bei 37° C in F-10 Medium + 1µM Cu(II) zur Depletion seiner lipophilen Antioxidantien inkubiert. Die Bildung von Cholesterinestern in P 388 D.1 Makrophagen unter Einfluß von konditioniertem human Plasma-LDL wurde nach 18 h Inkubation der Zellen (2 x 10^6/ml) in F-10 Medium + 1 µM Cu(II) + 50 µg/ml LDL + 5 % FCS nach Extraktion der Neutral fette dünnschichtchromatographisch gemessen.

Row | SMILES | Stabilisierung v. Plasma LDL: Verlängerung der "lag-Phase" (Plasma-LDL) | Hemmung der Cholesterinesterbildung in Macro- (P388D.1) (P 388 D.1 Makrophagen) | verlängern die lag-Phase von LDL (Plasma-LDL; reference substance, 3 molecules/LDL particle) [%] | Hemmung der Chol-ester-bildung (P 388 D.1 Makrophagen; reference substance, 10 /uM, n=7)
1 | CC(C)(C)c1cc(S(=O)(=O)NCc2ccccc2)cc(C(C)(C)C)c1O [1b).2, (3,5-Di-^tbutyl-4-hydroxy)benzolsulfo-benzylamid] | 8 | -73,0 |  | 
2 | Cc1cc(C(C)(C)C)c(O)c(S(=O)(=O)NCc2ccccc2)c1 [Beispiel 2.2, (3-^tButyl-2-hydroxy-5-methyl)benzolsulfo-benzylamid] |  | -64.1 |  | 
3 | CC(C)(C)c1cc(NS(=O)(=O)c2cc(C(C)(C)C)c(O)c(C(C)(C)C)c2)cc(C(C)(C)C)c1O [Beispiel 3.10] |  | -77.4 |  | 
4 | CC(C)(C)c1cc(CNS(=O)(=O)c2cc(C(C)(C)C)c(O)c(C(C)(C)C)c2)cc(C(C)(C)C)c1O [Beispiel 3.11] | 79 | -66.7 |  | 
5 | CC(C)(C)c1cc(CCNS(=O)(=O)c2cc(C(C)(C)C)c(O)c(C(C)(C)C)c2)cc(C(C)(C)C)c1O [Beispiel 3.12] |  | -63.4 |  | 
6 | CC(C)(C)c1cc(CCCNS(=O)(=O)c2cc(C(C)(C)C)c(O)c(C(C)(C)C)c2)cc(C(C)(C)C)c1O [Beispiel 3.13] |  | -72.6 |  | 
7 | CC(C)(Sc1cc(C(C)(C)C)c(O)c(C(C)(C)C)c1)Sc1cc(C(C)(C)C)c(O)c(C(C)(C)C)c1 [Probucol, reference compound] |  |  | 10 | 25-42%
